{"source": "patent US10597388B2", "about": "“Pyridazinone herbicides” (FMC CORPORATION, priority 2014, dated 2020)", "assay_in_all_cases": "Test D controlled growth environment herbicide test, pre- and postemergence", "format_in_all_cases": "in vivo", "key": {"[1]": {"system": "chamomile (scentless chamomile, Matricaria inodora)", "how_it_was_run": "(§1)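 Species sown in silt loam and sprayed preemergence, or grown in peat-based medium to 2–18 cm (1- to 4-leaf stage) and sprayed postemergence, with compounds in non-phytotoxic solvent plus surfactant. Visual injury scored versus controls after 14–21 d in a controlled environment, 0 (no effect) to 100 (complete control).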"}, "[2]": {"system": "speedwell (bird's-eye speedwell, Veronica persica)", "how_it_was_run": "as §1"}, "[3]": {"system": "blackgrass (Alopecurus myosuroides)", "how_it_was_run": "as §1"}, "[4]": {"system": "buckwheat, wild (wild buckwheat, Polygonum convolvulus)", "how_it_was_run": "as §1"}, "[5]": {"system": "oat, wild (wild oat, Avena fatua)", "how_it_was_run": "as §1"}, "[6]": {"system": "Russian thistle (Salsola kali)", "how_it_was_run": "as §1"}, "[7]": {"system": "oilseed rape (Brassica napus)", "how_it_was_run": "as §1"}, "[8]": {"system": "pigweed (Amaranthus retroflexus)", "how_it_was_run": "as §1"}, "[9]": {"system": "galium (catchweed bedstraw, Galium aparine)", "how_it_was_run": "as §1"}, "[10]": {"system": "field violet (Viola arvensis)", "how_it_was_run": "as §1"}, "kochia (Kochia scoparia)": {"system": "kochia (Kochia scoparia)", "how_it_was_run": "as §1"}, "[11]": {"system": "bromegrass, downy (downy bromegrass, Bromus tectorum)", "how_it_was_run": "as §1"}, "[12]": {"system": "lambsquarters (Chenopodium album)", "how_it_was_run": "as §1"}, "[13]": {"settings": "Postemergence, 31 g ai/ha, scale 0 to 100 (0 no effect, 100 complete control)"}, "[14]": {"settings": "Postemergence, 125 g ai/ha, visual rating on scale 0 (no effect) to 100 (complete control), 14 to 21 d"}, "[15]": {"settings": "Postemergence, 250 g ai/ha, scale 0 to 100 (0 no effect, 100 complete control)"}, "[16]": {"settings": "Preemergence, 62 g ai/ha, scale 0 to 100 (0 no effect, 100 complete control)"}, "[17]": {"settings": "Preemergence, 125 g ai/ha, scale 0 to 100 (0 no effect, 100 complete control)"}, "[18]": {"settings": "Preemergence, 250 g ai/ha, scale 0 to 100 (0 no effect, 100 complete control)"}, "[19]": {"settings": "postemergence, 62 g ai/ha, scale 0 to 100, 0 no effect, 100 complete control"}}}
{"smiles": "Cc1cc(C)c2sc(C)c(-c3c(OC(=O)OC(C)C)c(C)nn(C)c3=O)c2c1", "note": "[Compound 67]", "values": [{"measurement": "Chamomile plant response rating", "setting": "[1]; [13]", "value": 95}, {"measurement": "Plant response rating, Chamomile", "setting": "[1]; [14]", "value": 100}, {"measurement": "Plant response rating, Chamomile", "setting": "[1]; [15]", "value": 100}, {"measurement": "Plant response rating (scale of 0 to 100), Chamomile", "setting": "[1]; Preemergence, 31 g ai/ha", "value": 95}, {"measurement": "Plant response rating, Chamomile", "setting": "[1]; [16]", "value": 95}, {"measurement": "Plant response rating, Chamomile", "setting": "[1]; [17]", "value": 100}, {"measurement": "Plant response rating, Chamomile", "setting": "[1]; [18]", "value": 100}, {"measurement": "Plant response rating, Chamomile", "setting": "[1]; [19]", "value": 100}, {"measurement": "Speedwell plant response rating", "setting": "[2]; [13]", "value": 70}, {"measurement": "Plant response rating, Speedwell", "setting": "[2]; [14]", "value": 75}, {"measurement": "Plant response rating, Speedwell", "setting": "[2]; [15]", "value": 100}, {"measurement": "Plant response rating (scale of 0 to 100), Speedwell", "setting": "[2]; Preemergence, 31 g ai/ha", "value": 80}, {"measurement": "Plant response rating, Speedwell", "setting": "[2]; [16]", "value": 75}, {"measurement": "Plant response rating, Speedwell", "setting": "[2]; [17]", "value": 100}, {"measurement": "Plant response rating, Speedwell", "setting": "[2]; [18]", "value": 100}, {"measurement": "Plant response rating, Speedwell", "setting": "[2]; [19]", "value": 75}, {"measurement": "Blackgrass plant response rating", "setting": "[3]; [13]", "value": 70}, {"measurement": "Plant response rating, Blackgrass", "setting": "[3]; [14]", "value": 85}, {"measurement": "Plant response rating, Blackgrass", "setting": "[3]; [15]", "value": 95}, {"measurement": "Plant response rating (scale of 0 to 100), Blackgrass", "setting": "[3]; Preemergence, 31 g ai/ha", "value": 75}, {"measurement": "Plant response rating, Blackgrass", "setting": "[3]; [16]", "value": 75}, {"measurement": "Plant response rating, Blackgrass", "setting": "[3]; [17]", "value": 75}, {"measurement": "Plant response rating, Blackgrass", "setting": "[3]; [18]", "value": 80}, {"measurement": "Plant response rating, Blackgrass", "setting": "[3]; [19]", "value": 75}, {"measurement": "Buckwheat, Wild plant response rating", "setting": "[4]; [13]", "value": 100}, {"measurement": "Plant response rating, Buckwheat, Wild", "setting": "[4]; [14]", "value": 100}, {"measurement": "Plant response rating, Buckwheat, Wild", "setting": "[4]; [15]", "value": 100}, {"measurement": "Plant response rating (scale of 0 to 100), Buckwheat, Wild", "setting": "[4]; Preemergence, 31 g ai/ha", "value": 0}, {"measurement": "Plant response rating, Buckwheat, Wild", "setting": "[4]; [16]", "value": 0}, {"measurement": "Plant response rating, Buckwheat, Wild", "setting": "[4]; [17]", "value": 0}, {"measurement": "Plant response rating, Buckwheat, Wild", "setting": "[4]; [18]", "value": 0}, {"measurement": "Plant response rating, Buckwheat, Wild", "setting": "[4]; [19]", "value": 100}, {"measurement": "Oat, Wild plant response rating", "setting": "[5]; [13]", "value": 95}, {"measurement": "Plant response rating, Oat, Wild", "setting": "[5]; [14]", "value": 100}, {"measurement": "Plant response rating, Oat, Wild", "setting": "[5]; [15]", "value": 100}, {"measurement": "Plant response rating (scale of 0 to 100), Oat, Wild", "setting": "[5]; Preemergence, 31 g ai/ha", "value": 70}, {"measurement": "Plant response rating, Oat, Wild", "setting": "[5]; [16]", "value": 75}, {"measurement": "Plant response rating, Oat, Wild", "setting": "[5]; [17]", "value": 80}, {"measurement": "Plant response rating, Oat, Wild", "setting": "[5]; [18]", "value": 90}, {"measurement": "Plant response rating, Oat, Wild", "setting": "[5]; [19]", "value": 98}, {"measurement": "Russian Thistle plant response rating", "setting": "[6]; [13]", "value": 55}, {"measurement": "Plant response rating, Russian Thistle", "setting": "[6]; [14]", "value": 75}, {"measurement": "Plant response rating, Russian Thistle", "setting": "[6]; [15]", "value": 85}, {"measurement": "Plant response rating (scale of 0 to 100), Russian Thistle", "setting": "[6]; Preemergence, 31 g ai/ha", "value": 0}, {"measurement": "Plant response rating, Russian Thistle", "setting": "[6]; [16]", "value": 0}, {"measurement": "Plant response rating, Russian Thistle", "setting": "[6]; [17]", "value": 0}, {"measurement": "Plant response rating, Russian Thistle", "setting": "[6]; [18]", "value": 25}, {"measurement": "Plant response rating, Russian Thistle", "setting": "[6]; [19]", "value": 60}, {"measurement": "Oilseed Rape plant response rating", "setting": "[7]; [13]", "value": 70}, {"measurement": "Plant response rating, Oilseed Rape", "setting": "[7]; [14]", "value": 85}, {"measurement": "Plant response rating, Oilseed Rape", "setting": "[7]; [15]", "value": 90}, {"measurement": "Plant response rating (scale of 0 to 100), Oilseed Rape", "setting": "[7]; Preemergence, 31 g ai/ha", "value": 10}, {"measurement": "Plant response rating, Oilseed Rape", "setting": "[7]; [16]", "value": 20}, {"measurement": "Plant response rating, Oilseed Rape", "setting": "[7]; [17]", "value": 25}, {"measurement": "Plant response rating, Oilseed Rape", "setting": "[7]; [18]", "value": 25}, {"measurement": "Plant response rating, Oilseed Rape", "setting": "[7]; [19]", "value": 80}, {"measurement": "Pigweed plant response rating", "setting": "[8]; [13]", "value": 75}, {"measurement": "Plant response rating, Pigweed", "setting": "[8]; [14]", "value": 85}, {"measurement": "Plant response rating, Pigweed", "setting": "[8]; [15]", "value": 100}, {"measurement": "Plant response rating (scale of 0 to 100), Pigweed", "setting": "[8]; Preemergence, 31 g ai/ha", "value": 35}, {"measurement": "Plant response rating, Pigweed", "setting": "[8]; [16]", "value": 95}, {"measurement": "Plant response rating, Pigweed", "setting": "[8]; [17]", "value": 100}, {"measurement": "Plant response rating, Pigweed", "setting": "[8]; [18]", "value": 100}, {"measurement": "Plant response rating, Pigweed", "setting": "[8]; [19]", "value": 80}, {"measurement": "Galium plant response rating", "setting": "[9]; [13]", "value": 90}, {"measurement": "Plant response rating, Galium", "setting": "[9]; [14]", "value": 100}, {"measurement": "Plant response rating, Galium", "setting": "[9]; [15]", "value": 100}, {"measurement": "Plant response rating (scale of 0 to 100), Galium", "setting": "[9]; Preemergence, 31 g ai/ha", "value": 0}, {"measurement": "Plant response rating, Galium", "setting": "[9]; [16]", "value": 10}, {"measurement": "Plant response rating, Galium", "setting": "[9]; [17]", "value": 35}, {"measurement": "Plant response rating, Galium", "setting": "[9]; [18]", "value": 70}, {"measurement": "Plant response rating, Galium", "setting": "[9]; [19]", "value": 100}, {"measurement": "Field Violet plant response rating", "setting": "[10]; [13]", "value": 80}, {"measurement": "Plant response rating, Field Violet", "setting": "[10]; [14]", "value": 90}, {"measurement": "Plant response rating, Field Violet", "setting": "[10]; [15]", "value": 95}, {"measurement": "Plant response rating (scale of 0 to 100), Field Violet", "setting": "[10]; Preemergence, 31 g ai/ha", "value": 85}, {"measurement": "Plant response rating, Field Violet", "setting": "[10]; [16]", "value": 98}, {"measurement": "Plant response rating, Field Violet", "setting": "[10]; [17]", "value": 100}, {"measurement": "Plant response rating, Field Violet", "setting": "[10]; [18]", "value": 100}, {"measurement": "Plant response rating, Field Violet", "setting": "[10]; [19]", "value": 80}, {"measurement": "Kochia plant response rating", "setting": "kochia (Kochia scoparia); [13]", "value": 10}, {"measurement": "Plant response rating, Kochia", "setting": "kochia (Kochia scoparia); [14]", "value": 40}, {"measurement": "Plant response rating, Kochia", "setting": "kochia (Kochia scoparia); [15]", "value": 50}, {"measurement": "Plant response rating (scale of 0 to 100), Kochia", "setting": "kochia (Kochia scoparia); Preemergence, 31 g ai/ha", "value": 0}, {"measurement": "Plant response rating, Kochia", "setting": "kochia (Kochia scoparia); [16]", "value": 0}, {"measurement": "Plant response rating, Kochia", "setting": "kochia (Kochia scoparia); [17]", "value": 0}, {"measurement": "Plant response rating, Kochia", "setting": "kochia (Kochia scoparia); [18]", "value": 0}, {"measurement": "Plant response rating, Kochia", "setting": "kochia (Kochia scoparia); [19]", "value": 35}, {"measurement": "Bromegrass, Downy plant response rating", "setting": "[11]; [13]", "value": 60}, {"measurement": "Plant response rating, Bromegrass, Downy", "setting": "[11]; [14]", "value": 65}, {"measurement": "Plant response rating, Bromegrass, Downy", "setting": "[11]; [15]", "value": 70}, {"measurement": "Plant response rating (scale of 0 to 100), Bromegrass, Downy", "setting": "[11]; Preemergence, 31 g ai/ha", "value": 25}, {"measurement": "Plant response rating, Bromegrass, Downy", "setting": "[11]; [16]", "value": 35}, {"measurement": "Plant response rating, Bromegrass, Downy", "setting": "[11]; [17]", "value": 35}, {"measurement": "Plant response rating, Bromegrass, Downy", "setting": "[11]; [18]", "value": 70}, {"measurement": "Plant response rating, Bromegrass, Downy", "setting": "[11]; [19]", "value": 60}, {"measurement": "Lambsquarters plant response rating", "setting": "[12]; [13]", "value": 90}, {"measurement": "Plant response rating, Lambsquarters", "setting": "[12]; [14]", "value": 100}, {"measurement": "Plant response rating, Lambsquarters", "setting": "[12]; [15]", "value": 100}, {"measurement": "Plant response rating (scale of 0 to 100), Lambsquarters", "setting": "[12]; Preemergence, 31 g ai/ha", "value": 95}, {"measurement": "Plant response rating, Lambsquarters", "setting": "[12]; [16]", "value": 100}, {"measurement": "Plant response rating, Lambsquarters", "setting": "[12]; [17]", "value": 100}, {"measurement": "Plant response rating, Lambsquarters", "setting": "[12]; [18]", "value": 100}, {"measurement": "Plant response rating, Lambsquarters", "setting": "[12]; [19]", "value": 100}]}
